From US8076338B2, “Kinase modulators and methods of use” (Exelixis, Inc., priority 2004, dated 2011)
pIC50: −log10 of the molar value. Where two headings read alike, the source gives them in different places.

Experiments:
p70S6K = p70S6K (Homo sapiens, UniProt P23443); experiment: Luciferase-coupled chemiluminescence kinase assay (ATP consumption); type: biochemical
In short: (§1)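 Enzyme at 2.5-5 nM was preincubated 30 min at room temperature with compound in Tris pH 7.5, MgCl2, TX-100, DTT, then reacted with ATP for 3 h at ambient temperature. Remaining ATP was quantified by luciferase-luciferin chemiluminescence, with consumption kept at 25-60%; […].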

AktK = AktK (Homo sapiens, UniProt P31749); experiment: as above; type: biochemical; conditions: read-out: AKT-1 IC50
Chain of AktK (P31749 whole entry): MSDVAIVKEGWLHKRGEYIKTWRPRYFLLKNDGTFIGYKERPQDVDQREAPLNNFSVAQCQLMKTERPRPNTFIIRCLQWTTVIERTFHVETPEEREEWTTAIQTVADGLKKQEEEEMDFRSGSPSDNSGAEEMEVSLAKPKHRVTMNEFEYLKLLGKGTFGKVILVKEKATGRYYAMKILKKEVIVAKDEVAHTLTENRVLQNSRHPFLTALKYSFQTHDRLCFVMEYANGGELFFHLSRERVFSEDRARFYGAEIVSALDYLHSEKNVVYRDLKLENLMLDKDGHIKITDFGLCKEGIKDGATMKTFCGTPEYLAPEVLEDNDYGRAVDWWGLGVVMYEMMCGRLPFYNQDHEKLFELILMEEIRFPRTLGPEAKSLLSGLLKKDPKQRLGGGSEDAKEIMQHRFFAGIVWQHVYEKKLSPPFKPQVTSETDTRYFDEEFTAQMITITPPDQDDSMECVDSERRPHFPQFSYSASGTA
In short: as §1

Chain of p70S6K (P23443 whole entry): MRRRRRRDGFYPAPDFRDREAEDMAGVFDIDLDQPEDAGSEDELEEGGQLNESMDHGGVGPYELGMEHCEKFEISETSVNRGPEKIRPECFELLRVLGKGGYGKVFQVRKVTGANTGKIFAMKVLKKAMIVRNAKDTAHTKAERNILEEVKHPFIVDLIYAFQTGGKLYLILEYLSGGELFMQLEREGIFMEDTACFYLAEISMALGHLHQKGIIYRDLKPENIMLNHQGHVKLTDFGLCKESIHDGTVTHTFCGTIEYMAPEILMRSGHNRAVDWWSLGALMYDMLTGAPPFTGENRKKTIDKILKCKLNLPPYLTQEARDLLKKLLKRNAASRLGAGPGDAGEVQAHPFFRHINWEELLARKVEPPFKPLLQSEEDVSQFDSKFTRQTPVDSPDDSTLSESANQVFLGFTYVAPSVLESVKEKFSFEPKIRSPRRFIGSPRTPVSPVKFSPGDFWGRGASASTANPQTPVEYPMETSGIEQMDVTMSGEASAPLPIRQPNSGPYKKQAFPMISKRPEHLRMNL

Compound	pIC50 (p70S6K; Table 1, class symbols per key)	pIC50 (AktK; Table 1, class symbols per key)	pIC50 (p70S6K)	pIC50 (AktK)
CCc1n[nH]c2ncnc(N3CCN(c4ncnc5cc(OC)c(OC)cc45)CC3)c12 [Entry 169, 4-[4-(3-ethyl-1H-pyrazolo[3,4-d]pyrimidin-4-yl)piperazin-1-yl]-6,7-bis(methyloxy)quinazoline]	5.00 to 6.00	≤ 5.00	–	–
O=C1COc2ccc(-c3ccnc(N4CCN(c5ncnc6[nH]nc(Br)c56)CC4)n3)cc2N1 [Entry 144, 6-{2-[4-(3-bromo-1H-pyrazolo[3,4-d]pyrimidin-4-yl)piperazin-1-yl]pyrimidin-4-yl}-2H-1,4-benzoxazin-3(4H)-one]	5.00 to 6.00	5.00 to 6.00	–	–
Cc1ccc(Cl)cc1N1CCN(c2ncnc3[nH]nc(-c4ccc(C#N)cc4)c23)CC1 [Entry 366, 4-{4-[4-(5-chloro-2-methylphenyl)piperazin-1-yl]-1H-pyrazolo[3,4-d]pyrimidin-3-yl}benzonitrile]	–	–	5.00 to 6.00	5.00 to 6.00
CCc1n[nH]c2ncnc(N3CCN(c4cc(Cl)cc(OCCCN5CCOCC5)c4C)CC3)c12 [Entry 26, 4-(4-{5-chloro-2-methyl-3-[(3-morpholin-4-ylpropyl)oxy]phenyl}piperazin-1-yl)-3-ethyl-1H-pyrazolo[3,4-d]pyrimidine]	> 7.00	5.00 to 6.00	–	–
Brc1n[nH]c2ncnc(N3CCN(c4cnccn4)CC3)c12 [Entry 107, 3-bromo-4-(4-pyrazin-2-ylpiperazin-1-yl)-1H-pyrazolo[3,4-d]pyrimidine]	6.00 to 7.00	≤ 5.00	–	–
CCc1n[nH]c2ncnc(N3CCN(c4cccc(Cl)c4)CC3C(=O)OC)c12 (centres unmarked) [Entry 349, methyl 4-(3-chlorophenyl)-1-(3-ethyl-1H-pyrazolo[3,4-d]pyrimidin-4-yl)piperazine-2-carboxylate]	–	–	5.00 to 6.00	≤ 5.00
3-[4-(3-bromo-1H-pyrazolo[3,4-d]pyrimidin-4-yl)piperazin-1-yl]-5-(butyloxy)-2-methyl-N-(2-pyrrolidin-1-ylethyl)aniline [Entry 208]	> 7.00	> 7.00	–	–
CCCCC(=O)c1cc(NCCN2CCCC2)c(C)c(N2CCN(c3ncnc4[nH]nc(CC)c34)CC2)c1 [Entry 262, 1-{3-[4-(3-ethyl-1H-pyrazolo[3,4-d]pyrimidin-4-yl)piperazin-1-yl]-4-methyl-5-[(2-pyrrolidin-1-ylethyl)amino]phenyl}pentan-1-one]	> 7.00	> 7.00	–	–
Cc1c(NCCN(C)C)cc(OCC(C)C)cc1N1CCN(c2ncnc3[nH]nc(Br)c23)CC1 [Entry 195, N′-{3-[4-(3-bromo-1H-pyrazolo[3,4-d]pyrimidin-4-yl)piperazin-1-yl]-2-methyl-5-[(2-methylpropyl)ox-y]phenyl}-N,N-dimethylethane-1,2-diamine]	> 7.00	> 7.00	–	–
C#Cc1cc(NCCN2CCCC2)c(C)c(N2CCN(c3ncnc4[nH]nc(Br)c34)CC2)c1 [Entry 237, 3-[4-(3-bromo-1H-pyrazolo[3,4-d]pyrimidin-4-yl)piperazin-1-yl]-5-ethynyl-2-methyl-N-(2-pyrrolidin-1-ylethyl)aniline]	> 7.00	> 7.00	–	–
Cc1ccc(Cl)cc1N1CCN(c2ncnc3[nH]nc(-c4cccc(N)c4)c23)CC1 [Entry 339, 3-{4-[4-(5-chloro-2-methylphenyl)piperazin-1-yl]-1H-pyrazolo[3,4-d]pyrimidin-3-yl}aniline]	–	–	6.00 to 7.00	5.00 to 6.00
COc1cc(NCCN2CCCC2)c(C)c(N2CCN(c3ncnc4[nH]nc(Br)c34)CC2)c1 [Entry 255, 3-[4-(3-bromo-1H-pyrazolo[3,4-d]pyrimidin-4-yl)piperazin-1-yl]-2-methyl-5-(methyloxy)-N-(2-pyrrolidin-1-ylethyl)aniline]	> 7.00	6.00 to 7.00	–	–
CCc1n[nH]c2ncnc(N3CCN(c4cc(Cl)cc(OCCN5CCCCC5)c4C)CC3)c12 [Entry 17, 4-(4-{5-chloro-2-methyl-3-[(2-piperidin-1-ylethyl)oxy]phenyl}piperazin-1-yl)-3-ethyl-1H-pyrazolo[3,4-d]pyrimidine]	> 7.00	5.00 to 6.00	–	–
Cc1c(CCCN2CCCCC2)cc(Cl)cc1N1CCN(c2ncnc3[nH]nc(C(F)(F)F)c23)CC1 [Entry 100, 4-{4-[5-chloro-2-methyl-3-(3-piperidin-1-ylpropyl)phenyl]piperazin-1-yl}-3-(trifluoromethyl)-1H-pyrazolo[3,4-d]pyrimidine]	> 7.00	6.00 to 7.00	–	–
Cc1ccc(C(=O)Nc2ccccc2)cc1N1CCN(c2ncnc3[nH]nc(Br)c23)CC1 [Entry 187, 3-[4-(3-bromo-1H-pyrazolo[3,4-d]pyrimidin-4-yl)piperazin-1-yl]-4-methyl-N-phenylbenzamide]	> 7.00	> 7.00	–	–
CCc1n[nH]c2ncnc(N3CCN(c4cccc(Cl)c4)C(C(=O)NC4CCN(C)CC4)C3)c12 (centres unmarked) [Entry 382, 1-(3-chlorophenyl)-4-(3-ethyl-1H-pyrazolo[3,4-d]pyrimidin-4-yl)-N-(1-methylpiperidin-4-yl)piperazine-2-carboxamide]	–	–	5.00 to 6.00	≤ 5.00

Compound	pIC50 (p70S6K; Table 1, class symbols per key)	pIC50 (AktK; Table 1, class symbols per key)	pIC50 (p70S6K)	pIC50 (AktK)
Cc1c(CCCN2CCCC2)cc(Cl)cc1N1CCN(c2ncnc3[nH]nc(/C=C/C(=O)O)c23)CC1 [Entry 181, (2E)-3-(4-{4-[5-chloro-2-methyl-3-(3-pyrrolidin-1-ylpropyl)phenyl]piperazin-1-yl}-1H-pyrazolo[3,4-d]pyrimidin-3-yl)prop-2-enoic acid]	> 7.00	> 7.00	–	–
CCN1CCN(CCCOc2cc(Cl)cc(N3CCN(c4ncnc5[nH]nc(Br)c45)CC3)c2C)CC1 [Entry 86, 3-bromo-4-[4-(5-chloro-3-{[3-(4-ethylpiperazin-1-yl)propyl]oxy}-2-methylphenyl)piperazin-1-yl]-1H-pyrazolo[3,4-d]pyrimidine]	> 7.00	> 7.00	–	–
Cc1c(CCCN2CCCC2)cc(Cl)cc1N1CCN(c2ncnc3[nH]ncc23)CC1 [Entry 59, 4-{4-[5-chloro-2-methyl-3-(3-pyrrolidin-1-ylpropyl)phenyl]piperazin-1-yl}-1H-pyrazolo[3,4-d]pyrimidine]	> 7.00	5.00 to 6.00	–	–
Cc1c(OCCCN2CCN(C)CC2)cc(Cl)cc1N1CCN(c2ncnc3[nH]nc(C(F)(F)F)c23)CC1 [Entry 70, 4-[4-(5-chloro-2-methyl-3-{[3-(4-methylpiperazin-1-yl)propyl]oxy}phenyl)piperazin-1-yl]-3-(trifluoromethyl)-1H-pyrazolo[3,4-d]pyrimidine]	> 7.00	6.00 to 7.00	–	–
CCc1n[nH]c2ncnc(N3CCN(c4cc(Cl)c(OCCN(C)C)cc4C)CC3)c12 [Entry 389, 2-({2-chloro-4-[4-(3-ethyl-1H-pyrazolo[3,4-d]pyrimidin-4-yl)piperazin-1-yl]-5-methylphenyl}oxy)-N,N-dimethylethanamine]	–	–	6.00 to 7.00	5.00 to 6.00
Clc1cccc(N2CCN(c3ncnc4[nH]ccc34)CC2)c1 [Entry 296, 4-[4-(3-chlorophenyl)piperazin-1-yl]-7H-pyrrolo[2,3-d]pyrimidine]	–	–	6.00 to 7.00	5.00 to 6.00
Cc1c(NCCN2CCCC2)cc(-c2ccccc2)cc1N1CCN(c2ncnc3[nH]nc(Br)c23)CC1 [Entry 231, 5-[4-(3-bromo-1H-pyrazolo[3,4-d]pyrimidin-4-yl)piperazin-1-yl]-4-methyl-N-(2-pyrrolidin-1-ylethyl)biphenyl-3-amine]	> 7.00	> 7.00	–	–
Cc1c(NCCN2CCCC2)cc(C(=O)CCC(F)(F)F)cc1N1CCN(c2ncnc3[nH]nc(Br)c23)CC1 [Entry 274, 1-{3-[4-(3-bromo-1H-pyrazolo[3,4-d]pyrimidin-4-yl)piperazin-1-yl]-4-methyl-5-[(2-pyrrolidin-1-ylethyl)amino]phenyl}-4,4,4-trifluorobutan-1-one]	> 7.00	> 7.00	–	–
Cc1cccc(C)c1N1CCN(c2ncnc3[nH]nc(Br)c23)CC1 [Entry 103, 3-bromo-4-[4-(2,6-dimethylphenyl)piperazin-1-yl]-1H-pyrazolo[3,4-d]pyrimidine]	6.00 to 7.00	≤ 5.00	–	–
COC(CCC(F)(F)F)(OC)c1cc(NCCN2CCCC2)c(C)c(N2CCN(c3ncnc4[nH]nc(Br)c34)CC2)c1 [Entry 292, 3-[4-(3-bromo-1H-pyrazolo[3,4-d]pyrimidin-4-yl)piperazin-1-yl]-2-methyl-N-(2-pyrrolidin-1-ylethyl)-5-[4,4,4-trifluoro-1,1-bis(methyloxy)butyl]aniline]	–	–	> 7.00	> 7.00
CCc1n[nH]c2ncnc(N3CCN(c4cc(Cl)cc(C(=O)OCCN(C)C)c4OC)CC3)c12 [Entry 376, 2-(dimethylamino)ethyl 5-chloro-3-[4-(3-ethyl-1H-pyrazolo[3,4-d]pyrimidin-4-yl)piperazin-1-yl]-2-(methyloxy)benzoate]	–	–	> 7.00	5.00 to 6.00
Cc1c(NCCN2CCCC2)cc(F)cc1N1CCN(c2ncnc3[nH]nc(Br)c23)CC1 [Entry 58, 3-[4-(3-bromo-1H-pyrazolo[3,4-d]pyrimidin-4-yl)piperazin-1-yl]-5-fluoro-2-methyl-N-(2-pyrrolidin-1-ylethyl)aniline]	> 7.00	6.00 to 7.00	–	–
Cc1c(CCCN2CCN(C)CC2)cc(Cl)cc1N1CCN(c2ncnc3[nH]nc(Br)c23)CC1 [Entry 19, 3-bromo-4-(4-{5-chloro-2-methyl-3-[3-(4-methylpiperazin-1-yl)propyl]phenyl}piperazin-1-yl)-1H-pyrazolo[3,4-d]pyrimidine]	> 7.00	> 7.00	–	–
CCc1n[nH]c2ncnc(N3CCN(c4cc(Cl)cc(OC)c4C)CC3)c12 [Entry 126, 4-{4-[5-chloro-2-methyl-3-(methyloxy)phenyl]piperazin-1-yl}-3-ethyl-1H-pyrazolo[3,4-d]pyrimidine]	> 7.00	≤ 5.00	–	–
COc1nccnc1N1CCN(c2ncnc3[nH]nc(Br)c23)CC1 [Entry 133, 3-bromo-4-{4-[3-(methyloxy)pyrazin-2-yl]pipera-zin-1-yl}-1H-pyrazolo[3,4-d]pyrimidine]	6.00 to 7.00	≤ 5.00	–	–
